{
  "source": "patent US11059800B2",
  "about": "“Dehydroleucodine derivatives and uses thereof” (Bioventures, LLC, priority 2013, dated 2021)",
  "key": {"THP-1": {"tested_on": "THP-1", "assay": "Cytotoxicity, annexin V/7-AAD viability by flow cytometry, THP-1", "format": "cell-based, human", "conditions": "THP-1, 48 hours, drug range tested 1.25-160 μM", "experimental": "(§1) In order to assess the structure-activity relationship of DHL and its derivatives, DHL and its derivatives were evaluated against eight human leukemia cell lines. Cell lines were cultured in Iscove's Modified Dulbecco's Medium (IMDM) supplemented with 10%˜20% fetal bovine serum (FBS) according to culture conditions indicated by ATCC and 1% penicillin/streptomycin (Pen/Strep) at 37° C. and 5% CO2. The cells were seeded into 96-well plates and kept at a concentration of 0.5 million cells per mL. The samples were treated with DHL, Leucodine, DHL-Morpholine, DHL-Proline, DHL-Piperidine, and PTL at varying concentrations in triplicates. Cell viability was determined after incubating for 48 hours. The cells were stained with annexin V-fluorescein isothiocyanate or phycoeritrine (FITC/PE) and 7-aminoactinomycin (7-AAD) to detect phosphatidylserine exposition and cell permeability, respectively. At least 50,000 events were recorded per condition on either an LSR-II or LSR-Fortessa flow cytometer (BD Biosciences). Data analysis was conducted using FlowJo 9.6 software for Mac OS X (TreeStar). Cells that were negative for annexin V and 7-AAD were scored as viable."}, "SW-620": {"tested_on": "SW-620", "assay": "Single dose tumor cell growth inhibition, Colon Cancer SW-620", "format": "cell-based, human", "conditions": "SW-620, single dose 10 μM", "text": "(§2) DHL is cytotoxic to various leukemia, colon cancer, CNS cancer and prostate cancer cell lines."}, "phospho-p65": {"tested_on": "phospho-p65", "assay": "Western blot of phospho-p65 and total p65 in MOLM-13 cells", "format": "cell-based", "conditions": "10 or 20 μM, 6 hours", "experimental": "(§3) (FIG. 8A) Graphical representation of the fold changes of HMOX-1 in MOLM-13 cells. Cells were seeded at 0.5 million cells per milliliter and subject to 20 μM of DHL, leucodine, DHL-proline, DHL-piperidine, DHL-morpholine, or parthenolide for 6 hours. RNA was then extracted and quantitative PCR was performed. Experiments were performed in triplicates. Lines represent mean for each specimen, with error bars representing the SD. Fold change was calculated by the delta-delta Ct method. […] (FIG. 8D) Immunoblot for MOLM-13 cells after 6 hours of treatment with either DHL or PTL with 10 or 20 μM. Blot was probed for phospho-p65 and p65 antibodies. Total p65 is shown as the loading control."}, "[1]": {"tested_on": "eight human leukemia cell lines", "quoted_text": "Cell lines were cultured in Iscove's Modified Dulbecco's Medium (IMDM) supplemented with 10%˜20% fetal bovine serum (FBS) according to culture conditions indicated by ATCC and 1% penicillin/streptomycin (Pen/Strep) at 37° C. and 5% CO2. The cells were seeded into 96-well plates and kept at a concentration of 0.5 million cells per mL. […] Cell viability was determined after incubating for 48 hours. The cells were stained with annexin V-fluorescein isothiocyanate or phycoeritrine (FITC/PE) and 7-aminoactinomycin (7-AAD) to detect phosphatidylserine exposition and cell permeability, respectively. At least 50,000 events were recorded per condition on either an LSR-II or LSR-Fortessa flow cytometer (BD Biosciences). Data analysis was conducted using FlowJo 9.6 software for Mac OS X (TreeStar). Cells that were negative for annexin V and 7-AAD were scored as viable."}, "SNB-75": {"tested_on": "SNB-75", "assay": "Single dose tumor cell growth inhibition, CNS Cancer SNB-75", "format": "cell-based, human", "conditions": "SNB-75, single dose 10 μM", "text": "as §2"}, "HCT-116": {"tested_on": "HCT-116", "assay": "Single dose tumor cell growth inhibition, Colon Cancer HCT-116", "format": "cell-based, human", "conditions": "HCT-116, single dose 10 μM", "text": "as §2"}, "NF-κB": {"tested_on": "NF-κB", "assay": "Quantitative PCR of NF-κB transcript in MOLM-13 and MV-411 cells", "format": "cell-based", "conditions": "20 μM, 6 hours", "experimental": "as §3\n(§4) To compare these intracellular effects of DHL and its derivatives, quantitative PCR was performed (FIG. 8 and FIG. 9). MOLM-13 or MV-411 cells were seeded at 0.5 million cells per milliliter. Cells were treated for 6 hours with 20 μM of DHL, Leucodine, DHL-Morpholine, DHL-Proline, DHL-Piperidine or PTL, and then collected. […] Quantitative PCR was performed using probes for HMOX-1 (Hs01110251_m1), HSPA1A (Hs00359163_s1), and NFKB1 (Hs00765730_m1). […] Single-plex real-time PCR was performed in triplicates in a StepOne plus RealTime PCR system and analyzed with the StepOne Software. Fold change was calculated using the 2-DDCT method described by Livak and Schmittgen."}, "[2]": {"tested_on": "normal bone marrow and peripheral blood mononuclear cells", "conditions": "20 μM, 48 hours, AML n=8 vs normal n=4, Mann-Whitney p=0.004", "experimental": "as §1, with “The” for “In order to assess the structure-activity relationship of DHL and its derivatives, DHL and its derivatives were evaluated against eight human leukemia cell lines. Cell lines were cultured in Iscove's Modified Dulbecco's Medium (IMDM) supplemented with 10%˜20% fetal bovine serum (FBS) according to culture conditions indicated by ATCC and 1% penicillin/streptomycin (Pen/Strep) at 37° C. and 5% CO2. The”"}, "NCI-H460": {"tested_on": "NCI-H460", "assay": "Single dose tumor cell growth inhibition, Non-Small Cell Lung Cancer NCI-H460", "format": "cell-based", "conditions": "NCI-H460, single dose 10 μM", "text": "as §2"}, "TUR": {"tested_on": "TUR", "assay": "Cytotoxicity, annexin V/7-AAD viability by flow cytometry, TUR", "format": "cell-based, human", "conditions": "48 hours, drug range tested 1.25-160 μM", "experimental": "as §1"}, "HSPA1A": {"tested_on": "HSPA1A", "assay": "Quantitative PCR of HSPA1A in MOLM-13 or MV-411 cells", "format": "cell-based", "conditions": "20 μM, 6 hours, MOLM-13 and MV-411 cells", "experimental": "as §3\n(§5) (FIG. 9A) Graphical representation of the fold changes of HMOX-1 in MV-411 cells. Cells were seeded at 0.5 million cells per milliliter and subject to 20 μM of DHL, leucodine, DHL-proline, DHL-piperidine, DHL-morpholine, or parthenolide for 6 hours. RNA was then extracted and quantitative PCR was performed. Experiments were performed in triplicates. Lines represent mean for each specimen, with error bars representing the SD. Fold change was calculated by the delta-delta Ct method. (FIG. 9B) Graphical representation of the fold changes of HSPA1A in MV-411 cells, with the same experimental setup and analysis as FIG. […].\nas §4, with “collected. Total RNA was extracted using the Qiashredder and Qiagen Rneasy Mini kits.” for “collected.”"}, "K-562": {"tested_on": "K-562", "assay": "Single dose tumor cell growth inhibition, Leukemia K-562", "format": "cell-based", "conditions": "K-562, single dose 10 μM", "text": "as §2"}, "HMOX1 (Heme oxygenase 1)": {"tested_on": "HMOX1 (Heme oxygenase 1)", "assay": "Quantitative PCR of HMOX1 in MOLM-13 or MV-411 cells", "format": "cell-based", "conditions": "20 μM, 6 hours, MOLM-13 and MV-411 cells", "experimental": "as §3, §5\nas §4, with “collected. Total RNA was extracted using the Qiashredder and Qiagen Rneasy Mini kits.” for “collected.”"}},
  "data": [
    {"smiles": "C=C1C(=O)O[C@@H]2[C@H]3C(C)=CC(=O)C3=C(C)CC[C@@H]12", "note": "[DHL, dehydroleucodine]", "values": [
      {"measurement": "LD50", "setting": "THP-1", "result": 16.82, "unit": "µM"},
      {"measurement": "Percent inhibition", "setting": "SW-620", "result": 30.0, "unit": "%"},
      {"measurement": "phospho-p65 level by Western blot", "setting": "phospho-p65", "result": "significant decrease"},
      {"measurement": "anti-leukemic activity / in vitro cytotoxicity", "setting": "[1]", "result": "more potent anti-leukemic activity than PTL in most samples"},
      {"measurement": "LD50 values in the various leukemic cell lines tested", "setting": "[1]; range over the AML cell lines, 48 hours of treatment", "result": "5.02 to 18.95", "unit": "µM"},
      {"measurement": "Percent inhibition", "setting": "SNB-75", "result": 35.5, "unit": "%"},
      {"measurement": "Percent inhibition", "setting": "HCT-116", "result": 41.3, "unit": "%"},
      {"measurement": "NF-κB transcript levels", "setting": "NF-κB", "result": "slightly downregulated"},
      {"measurement": "potency to AML cell lines versus normal mononuclear cells", "setting": "[2]", "result": "significantly more potent to the AML cell lines"},
      {"measurement": "Percent inhibition", "setting": "NCI-H460", "result": 0.0, "unit": "%"},
      {"measurement": "LD50", "setting": "TUR", "result": 12.18, "unit": "µM"},
      {"measurement": "HSPA1A expression, fold change", "setting": "HSPA1A", "result": "upregulated"},
      {"measurement": "Percent inhibition", "setting": "K-562", "result": 42.0, "unit": "%"},
      {"measurement": "HMOX1 expression, fold change", "setting": "HMOX1 (Heme oxygenase 1)", "result": "upregulated"}
    ]}
  ]
}
